Source: patent US12110279B2, “Triazolones, tetrazolones, and imidazolones, or their salts, and pharmaceutical compositions comprising the same” (Yuhan Corporation, priority 2021, dated 2024)
Where a name gives a salt, the structure may show the parent alone. Read-outs that look alike come from different tables or passages of the source.

Key:
Type in all cases: biochemical
[1] = molecular target: T1, recombinant human MAO-B (monoamine oxidase-B) (Homo sapiens, UniProt P27338); test: Amplex Red HRP-coupled amine oxidase activity evaluation, recombinant human MAO-B; conditions: substrate 1 mM benzylamine; read-out: Inhibitory Activity (IC50, nM) MAO-B
T1 construct: purchased Sigma-Aldrich
T1 sequence (P27338 1-520): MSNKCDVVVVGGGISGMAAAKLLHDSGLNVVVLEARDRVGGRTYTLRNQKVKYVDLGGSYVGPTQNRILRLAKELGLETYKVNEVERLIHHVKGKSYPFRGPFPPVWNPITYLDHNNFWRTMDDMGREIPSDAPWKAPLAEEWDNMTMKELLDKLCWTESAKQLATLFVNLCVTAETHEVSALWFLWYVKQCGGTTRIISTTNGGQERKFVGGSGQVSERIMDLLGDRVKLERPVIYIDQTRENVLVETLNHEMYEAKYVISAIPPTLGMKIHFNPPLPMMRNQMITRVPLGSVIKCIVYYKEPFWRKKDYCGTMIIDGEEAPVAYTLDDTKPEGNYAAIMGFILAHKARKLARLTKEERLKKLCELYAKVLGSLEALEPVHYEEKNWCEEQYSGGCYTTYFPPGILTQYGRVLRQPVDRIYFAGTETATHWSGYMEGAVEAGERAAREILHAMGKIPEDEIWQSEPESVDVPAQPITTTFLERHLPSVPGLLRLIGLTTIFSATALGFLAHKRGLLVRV

[2] = molecular target: T2, recombinant human MAO-A (monoamine oxidase-A) (Homo sapiens, UniProt P21397); test: Amplex Red HRP-coupled amine oxidase activity evaluation, recombinant human MAO-A; conditions: substrate 0.5 mM tyramine; read-out: Inhibitory Activity (IC50, nM) MAO-A
T2 construct: purchased Sigma-Aldrich
T2 sequence (P21397 1-527): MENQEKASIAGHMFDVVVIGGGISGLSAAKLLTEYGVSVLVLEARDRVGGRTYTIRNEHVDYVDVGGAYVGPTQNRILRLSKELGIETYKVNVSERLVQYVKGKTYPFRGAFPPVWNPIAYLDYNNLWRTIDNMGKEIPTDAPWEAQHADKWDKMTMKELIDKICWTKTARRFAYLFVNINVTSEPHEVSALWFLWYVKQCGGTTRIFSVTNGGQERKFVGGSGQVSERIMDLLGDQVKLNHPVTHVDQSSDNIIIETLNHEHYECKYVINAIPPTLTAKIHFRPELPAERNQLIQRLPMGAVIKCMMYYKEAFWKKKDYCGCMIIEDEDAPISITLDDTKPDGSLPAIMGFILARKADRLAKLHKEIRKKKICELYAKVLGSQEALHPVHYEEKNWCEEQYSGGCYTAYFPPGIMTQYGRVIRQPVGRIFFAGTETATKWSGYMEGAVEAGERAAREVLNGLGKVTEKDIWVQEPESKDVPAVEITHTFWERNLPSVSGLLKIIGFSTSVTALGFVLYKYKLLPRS

recombinant human VAP-1 = molecular target: T3, recombinant human VAP-1 (Homo sapiens, UniProt Q16853); test: Amplex Red HRP-coupled amine oxidase activity evaluation, recombinant human VAP-1; conditions: substrate 1 mM benzylamine; 30 min preincubation at 37° C.; read-out: Inhibitory Activity (IC50, nM) human VAP-1
T3 construct: purchased R&D systems
T3 sequence (Q16853 1-763): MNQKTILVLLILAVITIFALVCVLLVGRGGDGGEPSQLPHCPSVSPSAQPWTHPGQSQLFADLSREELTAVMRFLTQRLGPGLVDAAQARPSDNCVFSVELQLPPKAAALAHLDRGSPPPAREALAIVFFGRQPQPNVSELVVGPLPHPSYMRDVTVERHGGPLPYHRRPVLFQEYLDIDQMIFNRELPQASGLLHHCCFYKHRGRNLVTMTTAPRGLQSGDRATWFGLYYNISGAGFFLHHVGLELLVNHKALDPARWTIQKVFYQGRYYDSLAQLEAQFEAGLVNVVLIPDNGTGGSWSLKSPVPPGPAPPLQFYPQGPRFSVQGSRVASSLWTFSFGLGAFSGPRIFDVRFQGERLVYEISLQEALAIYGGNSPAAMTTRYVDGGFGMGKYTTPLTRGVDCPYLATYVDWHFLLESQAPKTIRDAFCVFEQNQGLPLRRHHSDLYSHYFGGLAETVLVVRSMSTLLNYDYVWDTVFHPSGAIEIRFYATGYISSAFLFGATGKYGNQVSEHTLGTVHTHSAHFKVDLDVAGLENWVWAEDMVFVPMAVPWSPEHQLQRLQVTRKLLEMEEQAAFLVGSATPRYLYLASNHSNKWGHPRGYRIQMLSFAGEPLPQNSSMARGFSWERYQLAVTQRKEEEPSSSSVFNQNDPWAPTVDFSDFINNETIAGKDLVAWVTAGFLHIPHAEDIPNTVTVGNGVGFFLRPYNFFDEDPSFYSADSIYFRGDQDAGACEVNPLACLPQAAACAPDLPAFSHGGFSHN
Outline: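 Benzylamine served as substrate (1 mM in the reaction mix, with 200 uM Amplex Red and 1 U/mL HRP), with the H2O2 produced detected as resorufin fluorescence. Compound and VAP-1 were first incubated for 30 min at 37° C in pH 7.4 sodium phosphate buffer.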

[3] = molecular target: T4, recombinant human DAO (diamine oxidase) (Homo sapiens, UniProt P19801); test: Amplex Red HRP-coupled amine oxidase activity evaluation, recombinant human DAO
T4 construct: purchased R&D systems
T4 sequence (P19801 20-751): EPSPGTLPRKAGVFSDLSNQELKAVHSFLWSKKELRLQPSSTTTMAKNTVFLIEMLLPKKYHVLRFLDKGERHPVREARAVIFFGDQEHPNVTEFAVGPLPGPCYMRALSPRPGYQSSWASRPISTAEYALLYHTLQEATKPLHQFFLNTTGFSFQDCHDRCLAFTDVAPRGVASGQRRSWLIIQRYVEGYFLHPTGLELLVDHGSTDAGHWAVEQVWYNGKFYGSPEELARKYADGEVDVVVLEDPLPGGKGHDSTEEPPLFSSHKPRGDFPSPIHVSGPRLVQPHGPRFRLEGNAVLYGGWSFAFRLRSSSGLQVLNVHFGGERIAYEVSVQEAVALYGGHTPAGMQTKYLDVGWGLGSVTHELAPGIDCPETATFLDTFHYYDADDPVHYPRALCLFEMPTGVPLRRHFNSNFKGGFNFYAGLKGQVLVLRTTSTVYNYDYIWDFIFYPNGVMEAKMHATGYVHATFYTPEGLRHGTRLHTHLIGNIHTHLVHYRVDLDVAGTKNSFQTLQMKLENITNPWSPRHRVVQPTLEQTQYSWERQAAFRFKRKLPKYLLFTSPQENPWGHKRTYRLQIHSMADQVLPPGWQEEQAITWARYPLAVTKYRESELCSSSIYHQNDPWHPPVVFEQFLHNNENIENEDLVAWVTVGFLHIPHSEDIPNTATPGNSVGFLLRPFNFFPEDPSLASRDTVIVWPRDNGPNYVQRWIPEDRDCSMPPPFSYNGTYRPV

[4] = substrate 1 mM putrescine, read-out: Inhibitory Activity (IC50, nM) DAO

IC50 [1] [nM] | IC50 [2] [nM] | IC50 (recombinant human VAP-1) [nM] | IC50 [3, 4] [nM] | IC50 [3] [nM] | SMILES
59400 | > 100000 | > 100 | > 100000 | – | Cc1ccc(-c2ccc(S(C)(=O)=O)cc2)nc1-n1nnn(CC(CN)=C(F)F)c1=O [Example 23, 1-[2-(aminomethyl)-3,3-difluoro-allyl]-4-[3-methyl-6-(4-methylsulfonylphenyl)-2-pyridyl]tetrazol-5-one trifluoroacetate]
7080 | 52200 | 0.9 | – | 3.5 | Cc1cc(-c2cncc(-n3nnn(CC(CN)=C(F)F)c3=O)c2)cc2c1NC(=O)CC2 [Example 49, 6-[5-[4-[2-(aminomethyl)-3,3-difluoro-allyl]-5-oxo-tetrazol-1-yl]-3-pyridyl]-8-methyl-3,4-dihydro-1H-quinolin-2-one trifluoroacetate]
78 | > 100000 | 0.2 | > 100000 | – | CCn1cc(-c2ccc(-n3nnn(CC(CN)=C(F)F)c3=O)cc2)ccc1=O [Example 18, 5-[4-[4-[2-(aminomethyl)-3,3-difluoro-allyl]-5-oxo-tetrazol-1-yl]phenyl]-1-ethyl-pyridin-2-one trifluoroacetate]
